Measurements as given in patent EP0492277A2, “Cephalosporin derivatives” (F. HOFFMANN-LA ROCHE AG, priority 1990, dated 1992).

Tests used:
Test in all cases: MIC, Agar Dilution Method
Format in all cases: cell-based
Staph. aureus 67 = tested on: Staph. aureus 67
Method: (§1) In vitro activity of the compounds of the present invention was measured by the Minimum Inhibitory Concentration (MIC) in micrograms/ml utilizing the Agar Dilution Method, which is well known in the art, against a variety of gram-negative and gram-positive organisms.

Staph. aureus 1059B = tested on: Staph. aureus 1059B
Method: as §1

Ps. aeruginosa 8780 = tested on: Ps. aeruginosa 8780
Method: as §1

Str. faecalis ATCC 29212 = tested on: Str. faecalis ATCC 29212
Method: as §1

Prot. vulgaris ATCC 6380 = tested on: Prot. vulgaris ATCC 6380
Method: as §1

Prot. vulgaris 1028 BC = tested on: Prot. vulgaris 1028 BC
Method: as §1

Ps. aeruginosa 765 = tested on: Ps. aeruginosa 765
Method: as §1

[1] = tested on: Ps. aeruginosa ATCC 27853
Method: as §1

Ser. marcescens 1071 = tested on: Ser. marcescens 1071
Method: as §1

K. pneumoniae A = tested on: K. pneumoniae A
Method: as §1

E. coli 257 = tested on: E. coli 257
Method: as §1

Ps. aeruginosa 18SH = tested on: Ps. aeruginosa 18SH
Method: as §1

Str. pyogenes 4 = tested on: Str. pyogenes 4
Method: as §1

Staph. aureus Smith = tested on: Staph. aureus Smith
Method: as §1

Enter. cloacae P99 = tested on: Enter. cloacae P99
Method: as §1

Ser. marcescens SM = tested on: Ser. marcescens SM
Method: as §1

E. coli TEM-1 = tested on: E. coli TEM-1
Method: as §1

Cit. freundi BS-16 = tested on: Cit. freundi BS-16
Method: as §1

Staph. aureus ATCC 29213 = tested on: Staph. aureus ATCC 29213
Method: as §1

Ps. aeruginosa 5712 = tested on: Ps. aeruginosa 5712
Method: as §1

Prot. mirabilis 90 = tested on: Prot. mirabilis 90
Method: as §1

Enter. cloacae 5699 = tested on: Enter. cloacae 5699
Method: as §1

E. coli ATCC 25922 = tested on: E. coli ATCC 25922
Method: as §1

Staph. aureus 753 = tested on: Staph. aureus 753
Method: as §1

Str. pneumoniae 6301 = tested on: Str. pneumoniae 6301
Method: as §1

Substance | IN VITRO MIC (Staph. aureus 67) [µg/mL] | IN VITRO MIC (Staph. aureus 1059B) [µg/mL] | IN VITRO MIC (Ps. aeruginosa 8780) [µg/mL] | IN VITRO MIC (Str. faecalis ATCC 29212) [µg/mL] | IN VITRO MIC (Prot. vulgaris ATCC 6380) [µg/mL] | IN VITRO MIC (Prot. vulgaris 1028 BC) [µg/mL] | IN VITRO MIC (Ps. aeruginosa 765) [µg/mL] | IN VITRO MIC [1] [µg/mL] | IN VITRO MIC (Ser. marcescens 1071) [µg/mL] | IN VITRO MIC (K. pneumoniae A) [µg/mL] | IN VITRO MIC (E. coli 257) [µg/mL] | IN VITRO MIC (Ps. aeruginosa 18SH) [µg/mL] | IN VITRO MIC (Str. pyogenes 4) [µg/mL] | IN VITRO MIC (Staph. aureus Smith) [µg/mL] | IN VITRO MIC (Enter. cloacae P99) [µg/mL] | IN VITRO MIC (Ser. marcescens SM) [µg/mL] | IN VITRO MIC (E. coli TEM-1) [µg/mL] | IN VITRO MIC (Cit. freundi BS-16) [µg/mL] | IN VITRO MIC (Staph. aureus ATCC 29213) [µg/mL] | IN VITRO MIC (Ps. aeruginosa 5712) [µg/mL] | further results
[6R-[6α,7β(Z)]]-7-[[(2-Amino-4-thiazolyl)[(1-carboxyl-1-methylethoxy)imino]acetyl]amino]-3-[[4-(3-carboxy-1-cyclopropyl-6-fluoro-1,4-dihydro-4-oxo-7-quinolinyl)-1-piperazinyl]methyl]-8-oxo 5-thia-1-azabicyclo[4.2.0]-oct-2-ene-2-carboxylic acid sodium salt [Compound A] | 16 | 4 | 8 | 8 | 0.5 | 1 | 8 | 8 | 1 | 0.5 | 0.25 | 2 | 0.25 | 8 | 0.5 | 1 | 0.5 | 0.125 | 8 | 16 | IN VITRO MIC (Prot. mirabilis 90): 2 µg/mL; IN VITRO MIC (Enter. cloacae 5699): 1 µg/mL; IN VITRO MIC (E. coli ATCC 25922): 0.25 µg/mL; IN VITRO MIC (Staph. aureus 753): 8 µg/mL; IN VITRO MIC (Str. pneumoniae 6301): 0.25 µg/mL
[6R-[6a,7β(Z)]]-7-[[(2-Amino-4-thiazolyl)[(carboxymethoxy)imino]acetyl]amino]-3-[[4-(3-carboxy-1-cyclopropyl-6-fluoro-1,4-dihydro-4-oxo-7-quinolinyl)-1-piperazinyl]methyl]-8-oxo-5-thia-1-azabicyclo[4.2.0]-oct-2-ene-2-carboxylic acid sodium salt [Compound B] | 32 | 2 | 8 | 16 | 0.25 | 1 | 8 | 16 | 2 | 1 | 0.25 | 4 | 0.125 | 8 | 0.25 | 1 | 0.5 | 1 | 8 | 32 | IN VITRO MIC (Prot. mirabilis 90): 2 µg/mL; IN VITRO MIC (Enter. cloacae 5699): 1 µg/mL; IN VITRO MIC (E. coli ATCC 25922): 0.5 µg/mL; IN VITRO MIC (Staph. aureus 753): 8 µg/mL; IN VITRO MIC (Str. pneumoniae 6301): 0.25 µg/mL
